Measurements from patent US20190364899A1, “MICROBIOCIDAL OXADIAZOLE DERIVATIVES” (SYNGENTA PARTICIPATIONS AG, priority 2015, published 2019).

Assays:
[1] = test system: Phakopsora pachyrhizi; test: Fungicidal activity against Phakopsora pachyrhizi / soybean / leaf disc preventative (Asian soybean rust); format: in vivo; conditions: foliar, 200 ppm in the applied formulation, soybean leaf disks, inoculated one day after application, compared to untreated, read-out: disease control
Experimental: (§1) General examples of leaf disk tests in well plates: Leaf disks or leaf segments of various plant species are cut from plants grown in a greenhouse. The cut leaf disks or segments are placed in multiwell plates (24-well format) onto water agar. The leaf disks are sprayed with a test solution before (preventative) or after (curative) inoculation. Compounds to be tested are prepared as DMSO solutions (max. 10 mg/ml) which are diluted to the appropriate concentration with 0.025% Tween20 just before spraying. The inoculated leaf disks or segments are incubated under defined conditions (temperature, relative humidity, light, etc.) according to the respective test system. A single evaluation of disease level is carried out 3 to 14 days after inoculation, depending on the pathosystem. Percent disease control relative to the untreated check leaf disks or segments is then calculated. General examples of liquid culture tests in well plates: Mycelia fragments or conidia suspensions of a fungus prepared either freshly from liquid cultures of the fungus or from cryogenic storage, are directly mixed into nutrient broth. DMSO solutions of the test compound (max. 10 mg/ml) are diluted with 0.025% Tween20 by a factor of 50 and 10 μl of this solution is pipetted into a microtiter plate (96-well format). The nutrient broth containing the fungal spores/mycelia fragments is then added to give an end concentration of the tested compound. The test plates are incubated in the dark at 24° C. and 96% relative humidity. The inhibition of fungal growth is determined photometrically after 2 to 7 days, depending on the pathosystem, and percent antifungal activity relative to the untreated check is calculated.
Example 3: Fungicidal Activity Against Phakopsora pachyrhizi/Soybean/Leaf Disc Preventative (Asian Soybean Rust)
Soybean leaf disks are placed on water agar in multiwell plates (24-well format) and sprayed with the formulated test compound diluted in water. One day after application leaf discs are inoculated by spraying a spore suspension on the lower leaf surface. After an incubation period in a climate cabinet of 24-36 hours in darkness at 20° C. and 75% rh leaf disc are kept at 20° C. with 12 h light/day and 75% rh. The activity of a compound is assessed as percent disease control compared to untreated when an appropriate level of disease damage appears in untreated check leaf disks (12 to 14 days after application).
(§2) The following compounds at 200 ppm in the applied formulation give at least 80% disease control in this test when compared to untreated control leaf disks under the same conditions, which show extensive disease development.

[2] = test system: Puccinia recondita f, Sp. Tritici; test: Fungicidal activity against Puccinia recondita f. sp. tritici / wheat / leaf disc preventative (brown rust); format: in vivo; conditions: foliar, 200 ppm in the applied formulation, wheat leaf segments cv. Kanzler, inoculated 1 day after application, compared to untreated, read-out: disease control
Experimental: as §1
Example 1: Fungicidal Activity Against Puccinia recondita f, Sp. Tritici/Wheat/Leaf Disc Preventative (Brown Rust)
Wheat leaf segments cv. Kanzler were placed on agar in multiwell plates (24-well format) and sprayed with the formulated test compound diluted in water. The leaf disks were inoculated with a spore suspension of the fungus 1 day after application. The inoculated leaf segments were incubated at 19° C. and 75% relative humidity (rh) under a light regime of 12 hours light/12 hours darkness in a climate cabinet and the activity of a compound was assessed as percent disease control compared to untreated when an appropriate level of disease damage appears in untreated check leaf segments (7 to 9 days after application).
as §2

[3] = test system: Glomerella Lagenarium (Colletotrichum Lagenarium); test: Fungicidal activity against Glomerella lagenarium (Colletotrichum lagenarium) liquid culture / cucumber / preventative (anthracnose); format: cell-based; conditions: Colletotrichum orbiculare; 20 ppm in the applied formulation; liquid culture in PDB, growth inhibition measured photometrically 3 to 4 days after application; compared to untreated; read-out: disease control
Experimental: as §1
Example 4: Fungicidal Activity Against Glomerella Lagenarium (Colletotrichum Lagenarium) Liquid Culture/Cucumber/Preventative (Anthracnose)
Conidia of the fungus from cryogenic storage are directly mixed into nutrient broth (PDB—potato dextrose broth). After placing a (DMSO) solution of test compound into a microtiter plate (96-well format), the nutrient broth containing the fungal spores is added. The test plates are incubated at 24° C. and the inhibition of growth is measured photometrically 3 to 4 days after application.
The following compounds at 20 ppm in the applied formulation give at least 80% disease control in this test when compared to untreated control under the same conditions, which show extensive disease development.

[4] = test system: Puccinia Recondite f. Sp. Tritici; test: Fungicidal activity against Puccinia recondita f. sp. tritici / wheat / leaf disc curative (brown rust); format: in vivo; conditions: foliar, 24 h, 200 ppm in the applied formulation, wheat leaf segments cv. Kanzler, applied 1 day after inoculation, compared to untreated, read-out: disease control
Experimental: as §1
Example 2: Fungicidal Activity Against Puccinia Recondite f. Sp. Tritici Wheat/Leaf Disc Curative (Brown Rust)
Wheat leaf segments cv. Kanzler are placed on agar in multiwell plates (24-well format). The leaf segments are then inoculated with a spore suspension of the fungus. Plates were stored in darkness at 19° C. and 75% relative humidity. The formulated test compound diluted in water was applied 1 day after inoculation. The leaf segments were incubated at 19° C. and 75% relative humidity under a light regime of 12 hours light/12 hours darkness in a climate cabinet and the activity of a compound was assessed as percent disease control compared to untreated when an appropriate level of disease damage appears in untreated check leaf segments (6 to 8 days after application).
as §2

| Structure (SMILES) | pest or weed control at 200 ppm [1] [%] | pest or weed control at 200 ppm [2] [%] | inhibition of growth at 20 ppm [3] [%] | pest or weed control at 200 ppm [4] [%] | melting point [°C] |
| --- | --- | --- | --- | --- | --- |
| O=C(NCc1ccc(-c2noc(C(F)(F)F)n2)cc1F)OC1CCOCC1 [Compound 1.1, tetrahydropyran-4-yl N-[[2-fluoro-4-[5-(trifluoromethyl)-1,2,4-oxadiazol-3-yl)phenyl]methyl) carbamate] | ≥ 80 | ≥ 80 | ≥ 80 | ≥ 80 | 105 to 108 |
| O=C(NCc1ccc(-c2noc(C(F)(F)F)n2)cc1)OC1CCOCC1 [Compound 1.2, tetrahydropyran-4-yl N-[[4-[5-(trifluoromethyl)-1,2,4-oxadiazol-3-yl]phenyl]methyl]carbamate] | ≥ 80 | ≥ 80 | ≥ 80 | ≥ 80 | 104 to 106 |
| O=C(NCc1ccc(-c2noc(C(F)(F)F)n2)cc1)OCC1CC1 [Compound 1.3, cyclopropylmethyl N-[[4-[5-(trifluoromethyl)-1,2,4-oxadiazol-3-yl]phenyl]methyl] carbamate] | ≥ 80 | ≥ 80 | ≥ 80 | ≥ 80 | 108.2 to 109.8 |
| O=C(NCc1ccc(-c2noc(C(F)(F)F)n2)cc1)NCC1CC1 [Compound 2.1, 1-(cyclopropylmethyl)-3-[[4-[5-(trifluoromethyl)-1,2,4-oxadiazol-3-yl]phenyl]methyl]urea] | ≥ 80 | ≥ 80 | ≥ 80 |  | 158.8 to 165 |
| O=C(NCc1ccc(-c2noc(C(F)(F)F)n2)cc1F)NCC1CC1 [Compound 2.2, 1-(cyclopropylmethyl)-3-[[2-fluoro-4-[5-(trifluoromethyl)-1,2,4-oxadiazol-3-yl]phenyl]methyl]urea] | ≥ 80 |  | ≥ 80 |  | 157 to 160 |
| O=C(NCc1ccc(-c2noc(C(F)(F)F)n2)cc1)NC1CC1 [Compound 2.3, 1-cyclopropyl-3-[[4-[5-(trifluoromethyl)-1,2,4-oxadiazol-3-yl]phenyl]methyl]urea] | ≥ 80 | ≥ 80 | ≥ 80 | ≥ 80 | 176 to 180.1 |
| O=C(NCc1ccc(-c2noc(C(F)(F)F)n2)cc1F)NC1CC1 [Compound 2.4, 1-cyclopropyl-3-[[2-fluoro-4-[5-(trifluoromethyl)-1,2,4-oxadiazol-3-yl]phenyl]methyl]urea] | ≥ 80 | ≥ 80 | ≥ 80 | ≥ 80 | 150.1 to 152.4 |
| O=C(NCc1ccc(-c2noc(C(F)(F)F)n2)c(F)c1)NC1CC1 [Compound 2.20, 1-cyclopropyl-3-[[3-fluoro-4-[5-(trifluoromethyl)-1,2,4-oxadiazol-3-yl]phenyl]methyl]urea] | ≥ 80 | ≥ 80 | ≥ 80 | ≥ 80 | 169 to 173 |
| O=C(NCc1ccc(-c2noc(C(F)(F)F)n2)c(F)c1)Nc1ccccc1Cl [Compound 2.21, 1-(2-chlorophenyl)-3-[[3-fluoro-4-[5-(trifluoromethyl)-1,2,4-oxadiazol-3-yl]phenyl]methyl]urea] |  | ≥ 80 |  |  | 173 to 178 |
| CCN(C(=O)NCc1ccc(-c2noc(C(F)(F)F)n2)cc1)C1CC1 [Compound 2.27, 1-cyclopropyl-1-ethyl-3-[[4-[5-(trifluoromethyl)-1,2,4-oxadiazol-3-yl]phenyl]methyl]urea] | ≥ 80 | ≥ 80 | ≥ 80 | ≥ 80 |  |
| COCC1(N(C)C(=O)NCc2ccc(-c3noc(C(F)(F)F)n3)cc2)CC1 [Compound 2.28, 1-[1-(methoxymethyl)cyclopropyl]-1-methyl-3-[[4-[5-(trifluoromethyl)-1,2,4-oxadiazol-3-yl]phenyl]methyl]urea] | ≥ 80 | ≥ 80 | ≥ 80 | ≥ 80 |  |
| C#CCN(C(=O)NCc1ccc(-c2noc(C(F)(F)F)n2)cc1)C1CC1 [Compound 2.30, 1-cyclopropyl-1-prop-2-ynyl-3-[[4-[5-(trifluoromethyl)-1,2,4-oxadiazol-3-yl]phenyl]methyl]urea] | ≥ 80 | ≥ 80 | ≥ 80 | ≥ 80 |  |
| CN(CC1CC1)C(=O)NCc1ccc(-c2noc(C(F)(F)F)n2)cc1 [Compound 2.31, 1-(cyclopropylmethyl)-1-methyl-3-[[4-[5-(trifluoromethyl)-1,2,4-oxadiazol-3-yl]phenyl]methyl]urea] | ≥ 80 | ≥ 80 | ≥ 80 | ≥ 80 |  |
| O=C(NCCc1ccc(-c2noc(C(F)(F)F)n2)cc1)NC1CC1 [Compound 2.32, 1-cyclopropyl-3-[2-[4-[5-(trifluoromethyl)-1,2,4-oxadiazol-3-yl]phenyl]ethyl]urea] |  |  |  |  | 147 to 159 |
| O=C(NCc1ccc(-c2noc(C(F)(F)F)n2)cc1)n1ccnc1 [Compound 3.1, N-[[4-[5-(trifluoromethyl)-1,2,4-oxadiazol-3-yl]phenyl]methyl] imidazole-1-carboxamide] | ≥ 80 | ≥ 80 | ≥ 80 | ≥ 80 | 97 to 102 |
| O=C(NCc1ccc(-c2noc(C(F)(F)F)n2)c(F)c1)N1CCOCC1 [Compound 3.3, N-[[3-fluoro-4-[5-(trifluoromethyl)-l,2,4-oxadiazol-3-yl]phenyl]methyl] morpholine-4-carboxamide] |  | ≥ 80 | ≥ 80 | ≥ 80 | 82 to 94 |
| O=C(NCc1ccc(-c2noc(C(F)(F)F)n2)cc1)N1CCCC1 [Compound 3.4, N-[[4-[5-(trifluoromethyl)-l,2,4-oxadiazol-3-yl]phenyl]methyl] pyrrolidine-1-carboxamide] | ≥ 80 | ≥ 80 | ≥ 80 | ≥ 80 |  |
| O=C(NCc1ccc(-c2noc(C(F)(F)F)n2)cc1)N1CCCO1 [Compound 3.5, N-[[4-[5-(trifluoromethyl)-l,2,4-oxadiazol-3-yl]phenyl]methyl] isoxazolidine-2-carboxamide] | ≥ 80 | ≥ 80 | ≥ 80 | ≥ 80 |  |
